As usually defined, the IC50 is the point on the concentration scale where inhibition reaches its midpoint.

T1 sequence (O00763 129-2458 limits assumed): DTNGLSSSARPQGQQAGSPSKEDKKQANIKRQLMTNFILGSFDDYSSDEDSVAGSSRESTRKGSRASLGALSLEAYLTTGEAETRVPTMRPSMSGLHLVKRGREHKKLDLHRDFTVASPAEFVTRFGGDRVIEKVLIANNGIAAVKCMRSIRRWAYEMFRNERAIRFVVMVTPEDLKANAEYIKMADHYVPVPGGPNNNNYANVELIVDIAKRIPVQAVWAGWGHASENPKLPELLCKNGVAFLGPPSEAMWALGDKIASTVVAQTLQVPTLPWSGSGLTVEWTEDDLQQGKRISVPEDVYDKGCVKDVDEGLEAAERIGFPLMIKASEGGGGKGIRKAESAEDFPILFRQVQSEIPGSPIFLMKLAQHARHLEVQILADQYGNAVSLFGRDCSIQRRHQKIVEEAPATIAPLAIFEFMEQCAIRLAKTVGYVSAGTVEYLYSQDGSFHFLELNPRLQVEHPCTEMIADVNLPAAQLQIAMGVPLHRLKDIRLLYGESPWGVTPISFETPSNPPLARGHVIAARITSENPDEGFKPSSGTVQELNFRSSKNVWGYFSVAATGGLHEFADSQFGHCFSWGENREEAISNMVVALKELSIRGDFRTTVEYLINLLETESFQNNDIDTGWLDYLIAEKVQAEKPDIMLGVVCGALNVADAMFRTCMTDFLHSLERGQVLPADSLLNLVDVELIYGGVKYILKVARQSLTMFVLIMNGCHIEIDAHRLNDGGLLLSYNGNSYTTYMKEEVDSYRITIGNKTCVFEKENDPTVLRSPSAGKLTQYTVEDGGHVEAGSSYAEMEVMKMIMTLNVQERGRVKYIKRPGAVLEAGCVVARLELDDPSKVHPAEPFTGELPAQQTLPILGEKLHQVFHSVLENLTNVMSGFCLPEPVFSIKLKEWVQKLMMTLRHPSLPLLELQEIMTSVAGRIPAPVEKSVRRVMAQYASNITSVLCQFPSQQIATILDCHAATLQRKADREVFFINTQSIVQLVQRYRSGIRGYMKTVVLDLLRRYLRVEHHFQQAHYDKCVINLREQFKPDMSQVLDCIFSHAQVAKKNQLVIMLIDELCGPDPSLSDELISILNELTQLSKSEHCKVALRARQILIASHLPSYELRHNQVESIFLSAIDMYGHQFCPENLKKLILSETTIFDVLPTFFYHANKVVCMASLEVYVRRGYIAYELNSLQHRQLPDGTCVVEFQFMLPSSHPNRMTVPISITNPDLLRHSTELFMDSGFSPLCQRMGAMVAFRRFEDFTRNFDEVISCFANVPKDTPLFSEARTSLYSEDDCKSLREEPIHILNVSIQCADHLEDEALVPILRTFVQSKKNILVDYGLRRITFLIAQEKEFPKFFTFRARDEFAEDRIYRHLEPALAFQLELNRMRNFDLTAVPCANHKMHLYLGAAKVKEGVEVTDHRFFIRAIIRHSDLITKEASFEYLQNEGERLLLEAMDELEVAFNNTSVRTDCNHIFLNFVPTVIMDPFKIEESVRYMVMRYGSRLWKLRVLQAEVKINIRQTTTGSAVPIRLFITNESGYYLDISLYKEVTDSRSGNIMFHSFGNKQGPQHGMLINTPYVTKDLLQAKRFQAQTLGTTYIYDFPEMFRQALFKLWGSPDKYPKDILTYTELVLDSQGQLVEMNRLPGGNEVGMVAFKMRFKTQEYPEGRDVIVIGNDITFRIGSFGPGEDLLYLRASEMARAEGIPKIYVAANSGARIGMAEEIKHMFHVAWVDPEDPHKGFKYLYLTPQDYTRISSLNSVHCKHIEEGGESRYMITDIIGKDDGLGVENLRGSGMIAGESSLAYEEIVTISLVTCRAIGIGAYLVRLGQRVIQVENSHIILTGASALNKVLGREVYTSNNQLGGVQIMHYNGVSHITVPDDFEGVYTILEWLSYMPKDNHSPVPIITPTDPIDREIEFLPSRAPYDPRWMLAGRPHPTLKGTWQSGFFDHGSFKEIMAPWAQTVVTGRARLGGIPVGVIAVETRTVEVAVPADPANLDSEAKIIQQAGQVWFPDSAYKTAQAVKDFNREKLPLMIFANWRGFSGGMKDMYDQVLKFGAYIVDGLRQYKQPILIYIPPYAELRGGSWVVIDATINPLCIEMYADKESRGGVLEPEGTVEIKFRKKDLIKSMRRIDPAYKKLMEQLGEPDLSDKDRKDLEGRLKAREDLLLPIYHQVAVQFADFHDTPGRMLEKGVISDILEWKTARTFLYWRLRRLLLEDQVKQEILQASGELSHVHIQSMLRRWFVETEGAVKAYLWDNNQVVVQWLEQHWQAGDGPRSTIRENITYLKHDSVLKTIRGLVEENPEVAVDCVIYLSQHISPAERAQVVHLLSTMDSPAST

The test concerns the target T1, human ACC2 (Homo sapiens, UniProt O00763).
T1 construct: made in house; host or cells: insect cells (baculoviral expression system)
Put plainly: ACC2 assay, spectrophotometric 384 well assay (NADH-linked, coupled lactate dehydrogenase/pyruvate kinase). Format: biochemical. The conditions noted are these: ACC2 assay, hACC2 construct lacking 128 N-terminal amino acids, 25° C., 340 nm; read-out: IC50. Put shortly:
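Human ACC2 lacking N-terminal 128 aa, baculovirus/insect-cell expressed, anion-exchange purified; 100 mM Tris pH 7.5, 10 mM citrate, 25 mM KHCO3, 1% DMSO. Started with 200 μM NADH and acetyl-CoA plus 500 μM ATP; PK/LDH-coupled A340 decrease read 15 min at 25° C. IC50 by nonlinear fit of low-control-subtracted slopes.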
Consider `CC(=O)NC(C)Cc1ccc(C2CCN(c3ccc(OCC4CC4)cc3)CC2)cc1` (stereo not drawn) [Example 2.8], for which the IC50 came out at 960 nM.
The result for `CC(=O)N[C@@H](C)c1ccc(C2CCN(c3ncc(-c4ccc(OC(C)C)cc4)cn3)CC2)cc1` [Example 10.27] reads 970 nM; that for `CC(=O)N[C@@H](C)c1ccc(C2CCN(c3cccc(C(=O)N4Cc5ccccc5C4)c3)CC2)cc1` [Example 29.2], 1700 nM; that for `C[C@H](NC(=O)C1CC1)c1ccc(C2CCN(c3ncnc(N(C)CC4CC4)c3F)CC2)cc1` [Example 11.128], 410 nM.
Take `CCOc1cc(N2CCC(c3ccc([C@H](C)NC(C)=O)cc3)CC2)ccn1` [Example 1.191]: the IC50 amounted to 390 nM.
Then `CC(=O)N[C@@H](C)c1ccc(C2CCN(c3ncc(C(C)(C)C)cn3)CC2)cc1` [Example 4.38], with 440 nM.
On to `CC(=O)N[C@@H](C)c1ccc(C2CCN(c3ncc(C(F)(F)F)cc3Cl)CC2)cc1` [Example 5.16], for which the IC50 was found to be 260 nM.
Take `Cc1cccc(-c2cnc(N3CCC(c4ccc([C@H](C)NC(=O)N(C)C)cc4)CC3)nc2)c1` [Example 10.107]: the IC50 turned out to be 110 nM.
`CCCOc1ccc(N2CCC(c3ccc([C@H](C)NC(=O)N(C)C)cc3)CC2)c(OC)c1` [Example 1.124]: the 50% inhibitory concentration (IC50) is 180 nM.
Then `CC(=O)N[C@@H](C)c1ccc(C2CCN(c3ccnc(O[C@H]4CCOC4)n3)CC2)cc1` [Example 11.18], with 6200 nM.
The result for `COC[C@H]1CCCN1C(=O)c1cnc(N2CCC(c3ccc([C@H](C)NC(C)=O)cc3)CC2)nc1` [Example 18.27] reads 10400 nM.
For the compound `CC(=O)N[C@@H](C)c1ccc(C2CCN(c3cc(-c4ccccc4)ncn3)CC2)cc1` [Example 4.22], the half-inhibitory concentration (IC50) is 1100 nM.
The result for `CC(=O)N[C@@H](C)c1ccc(C2CCN(c3ncc(C(=O)N(C)CC4(C)COC4)cn3)CC2)cc1` [Example 18.68] reads 19000 nM; that for `CC(=O)N[C@@H](C)c1ccc(C2CCN(c3cc(NCC4CCC4)ncn3)CC2)cc1` [Example 11.95], 2000 nM.
Then `CCOc1ccc(N2CCC(c3ccc([C@H](C)NC(=O)N4CCCC4)cc3)CC2)cc1` [Example 14.68], with 7800 nM; and `COc1ccc(N2CCC(c3ccc([C@H](C)NC(C)=O)cc3)CC2)c(C#N)c1` [Example 1.34], with 260 nM; and `CC(=O)N[C@@H](C)c1ccc(C2CCN(c3ncc(C(=O)NCC4CCCO4)cn3)CC2)cc1` (stereo partly drawn) [Example 18.57], with 22400 nM.
The result for `CC(=O)N[C@@H](C)c1ccc(C2CCN(c3ccnc(NC4CCC4)n3)CC2)cc1` [Example 11.45] reads 1500 nM.
Consider `C=CCC(=O)N[C@@H](C)c1ccc(C2CCN(c3ccc(OCC)cc3)CC2)cc1` [Example 6.16], for which the IC50 was 570 nM.
The result for `CC(=O)N[C@@H](C)c1ccc(C2CCN(c3ccc(OC4CCCCC4)nc3)CC2)cc1` [Example 1.172] reads 250 nM; that for `CCCOc1ccc(N2CCC(c3ccc([C@H](C)NC(C)=O)cc3)CC2)c(C#N)c1` [Example 13.1, (S)—N-(1-{4-[1-(2-Cyano-4-propoxy-phenyl)-piperidin-4-yl]-phenyl}-ethyl)-acetamide], 90 nM.
The result for `CCOc1ccc(N2CCC(c3ccc(C4(NC(C)=O)CC4)cc3)CC2)cc1` [Example 3.20] reads 7400 nM.
The result for `CC(=O)N[C@@H](C)c1ccc(C2CCN(c3ccc(C4(C#N)CC4)cn3)CC2)cc1` [Example 5.35] reads 2800 nM; that for `CCCOc1cnc(N2CCC(c3ccc([C@H](C)NC(C)=O)cc3)CC2)cn1` [Example 8.8], 290 nM.
For the compound `CC(=O)N[C@@H](C)c1ccc(C2CCN(c3ncc(C(=O)N[C@H]4C[C@H](N)C4)cn3)CC2)cc1` [Example 18.74], the IC50 was 24500 nM.
As for `CC(=O)N[C@@H](C)c1ccc(C2CCN(c3ncc(C(=O)NCc4cc[nH]n4)cn3)CC2)cc1` [Example 18.21], the IC50 worked out at 2600 nM.
Then `CCCOc1cc(N2CCC(c3ccc([C@H](C)NC(C)=O)cc3)CC2)ccn1` [Example 19.23], with 120 nM.
The result for `CC(=O)N[C@@H](C)c1ccc(C2CCN(c3nc(Cl)cc4ccccc34)CC2)cc1` [Example 4.8] reads 970 nM; that for `CC(=O)N[C@@H](C)c1ccc(C2CCN(c3ncc(C(=O)N(C)Cc4ccncc4)cn3)CC2)cc1` [Example 18.1, (S)-2-{4-[4-(1-Acetylamino-ethyl)-phenyl]-piperidin-1-yl}-pyrimidine-5-carboxylic acid methyl-pyridin-4-ylmethyl-amide], 9800 nM; that for `CC(=O)N[C@@H](C)c1ccc(C2CCN(c3ccc4c(c3)OCO4)CC2)cc1` [Example 1.67], 360 nM.
Then `CC(=O)N[C@@H](C)c1ccc(C2CCN(c3ccc(OC4CCOCC4)cc3)CC2)cc1` [Example 7.1, (S)—N-[1-(4-{1-[4-(Tetrahydro-2H-pyran-4-yloxy)-phenyl]-piperidin-4-yl}-phenyl)-ethyl]-acetamide], with 580 nM.
For the compound `COCc1ccc(-c2cnc(N3CCC(c4ccc([C@H](C)NC(C)=O)cc4)CC3)nc2)cc1` [Example 10.32], the half-inhibitory concentration (IC50) worked out at 410 nM.
The result for `C[C@H](NC(=O)C1CC1)c1ccc(C2CCN(c3ccc(OC4CC4)cc3)CC2)cc1` [Example 1.14] reads 100 nM.
In the case of `COCCOc1ccc(N2CCC(c3ccc([C@H](C)NC(C)=O)cc3)CC2)c(F)c1` [Example 1.97], the half-maximal inhibitory concentration (IC50) was found to be 530 nM.
Then `CC(=O)N[C@@H](C)c1ccc(C2CCN(c3cc4c(cc3C#N)OCO4)CC2)cc1` [Example 1.73], with 3400 nM; and `CC(=O)N[C@@H](C)c1ccc(C2CCN(c3ncc(-c4ccc(F)c(F)c4)cn3)CC2)cc1` [Example 10.52], with 70 nM.
For the compound `CCOc1ccc(N2CCC(c3ccc(CC(C)NC(C)=O)cc3)CC2)c(F)c1` (stereo not drawn) [Example 2.12], the IC50 stood at 530 nM.
`CC(=O)N[C@@H](C)c1ccc(C2CCN(c3nccc(-c4ccc(C#N)s4)n3)CC2)cc1` [Example 22.11]: the 50% inhibitory concentration (IC50) was 390 nM.
Then `C[C@H](NC(=O)C1CC1)c1ccc(C2CCN(c3ncc4nc(-c5ccccc5)oc4n3)CC2)cc1` [Example 4.46], with 210 nM; and `CC(=O)N[C@@H](C)c1ccc(C2CCN(c3ccnc(N[C@H](C)C(C)C)n3)CC2)cc1` [Example 11.75], with 3800 nM.
Then `COc1ncccc1-c1cnc(N2CCC(c3ccc([C@H](C)NC(C)=O)cc3)CC2)nc1` [Example 10.58], with 760 nM; and `CCOC(=O)C1(Oc2ccc(N3CCC(c4ccc([C@H](C)NC(C)=O)cc4)CC3)cc2)CCC1` [Example 8.10], with 100 nM; and `COc1cccc(N2CCC(c3ccc([C@H](C)NC(C)=O)cc3)CC2)n1` [Example 5.43], with 630 nM.
Then `CC(=O)N[C@@H](C)c1ccc(C2CCN(c3ncc(C(=O)NC4COC4)cn3)CC2)cc1` [Example 18.39], with 15200 nM; and `COc1cc(-c2cnc(N3CCC(c4ccc([C@H](C)NC(C)=O)cc4)CC3)nc2)ccc1C#N` [Example 10.128], with 140 nM; and `CC(=O)N[C@@H](C)c1ccc(C2CCN(c3ncc(-c4ccc5[nH]ccc5c4)cc3F)CC2)cc1` [Example 10.302], with 430 nM.
`CC(=O)N[C@@H](C)c1ccc(C2CCN(c3ncc(C(=O)N(C)CCN(C)C)cn3)CC2)cc1` [Example 18.43]: the IC50 was found to be 16800 nM.
Then `COC(=O)c1cnc(N2CCC(c3ccc([C@H](C)NC(C)=O)cc3)CC2)s1` [Example 4.101], with 2700 nM.

The values are drawn from patent publication US9006450B2 (Boehringer Ingelheim International GmbH, priority 2010, dated 2015).
